pIC50: −log10 of the molar value.
Legend:
HCMV strain AD169 = experiment: Functional plaque reduction assay in HFF infected with human CMV; format: cell-based; conditions: for inhibition of CMV replication: plaque reduction assays in HFF treated with decreasing concentrations (Fig. 1-4)
Procedure: For the plaque reduction assay, HFF were seeded to 100 % confluency and then pre-treated with compound M8 at 8 different concentrations. HFF were subsequently infected with CMV strain AD169, washed and again incubated with two-fold dilutions of the compound. All experiments were done in triplicates (arrow bars show SEM). […] For the plaque reduction assay, HFF were seeded to 100 % confluency. The virus preparation of CMV strain AD169 was pretreated before infection of cells with compound M8 at 8 different concentrations. HFF were subsequently infected with CMV strain AD169, washed and again incubated with two-fold dilutions of the compound. All experiments were done in triplicates (arrow bars show SEM). […] For the plaque reduction assay HFF were seeded to 100 % confluency and subsequently infected with CMV strain AD169. Cells were washed thereafter and incubated with two-fold dilutions of the compound GCV. All experiments were done in triplicates (arrow bars show SEM). […] For the plaque reduction assay HFF were seeded to 100 % confluency and then pre-treated with compound RES at 8 different concentrations. HFF were subsequently infected with CMV strain AD169, washed and again incubated with two-fold dilutions of the compound. All experiments were done in triplicates (arrow bars show SEM).
HCMV strain AD169 was prepared as described previously (Rieder et al., J. Gen. Virol. 98 (2017), 471-485). For virus production, HFF were grown to confluence and subsequently infected with HCMV AD169 at a multiplicity of infection (MOI) of 0.01. The viral inoculum was replaced by culture medium after 90 min. Upon visibility of a total cytopathic effect (CPE) (usually 8-10 days post-infection), the viral supernatant was harvested and stored at - 80°C. After thawing, cell debris was removed by centrifugation at 3,000 g for 20 min. Infectivity of the viral inoculum was then measured using a plaque assay as described elsewhere (Britt, Curr. Protoc. Microbiol. (2010), 14E.3). […] Ganciclovir (Merck Millipore) was added at the indicated concentrations after removal of the inoculum. The cells were then overlaid with growth medium containing 0.5% low-melting point agarose. After solidification of the agarose layer, the plates were incubated for 10 days at 37°C in a CO2 incubator, then fixed with 2% formaldehyde and analysed for number of plaques after staining with 1:5 diluted Mayer's Hemalaun. Plaque numbers were normalized to the mean of DMSO-treated control samples. IC50 values were calculated with Graphpad Prism (dose-response inhibition).

HFF = experiment: Toxicity of the compounds to HFF (inhibition of cellular metabolism); format: cell-based, human
[1] = treatment of HFF after CMV infection, CMV strain AD169
[2] = Human betaherpesvirus 5, AD169, cells (HFF) pretreated with compound for 90 min, CMV strain AD169, plaques counted after 10 days
[3] = cells (HFF) pretreated with compound, CMV strain AD169
[4] = virus pretreated with compound, CMV strain AD169

Compound | inhibition of CMV replication (HCMV strain AD169) | concentration of complete inhibition (HCMV strain AD169; [1]) [µM] | concentration of initial inhibitory effect (HCMV strain AD169; [1]) [µM] | pIC50 (HCMV strain AD169; [2]) | pIC50 (HCMV strain AD169; Human betaherpesvirus 5, AD169, virus pretreated with compound for 90 min before infection of HFF, CMV strain AD169) | concentration at which some inhibition of CMV was noted (HCMV strain AD169; [3]) [µM] | concentration of complete inhibition of CMV (HCMV strain AD169; [3]) [µM] | concentration at which inhibition was noticed (HCMV strain AD169; [4]) [µM] | concentration of maximum inhibition (HCMV strain AD169; [4]) [µM] | concentration found to be toxic to the HFF (HFF) [µM]
Nc1nc(O)c2ncn(COC(CO)CO)c2n1 [GCV, Ganciclovir, reference compound] | significant inhibition | ≥ 5 | 0.156 | – | – | – | – | – | – | –
Oc1cc(/C=C/c2cc(O)c(O)c(O)c2)cc(O)c1O [M8, 3,3',4,4',5,5'-hexahydroxy-trans-stilbene] | significant inhibition | – | – | ~4.43 | ~5.52 | 12.5 | 100 | 6.25 | 25 | > 100
Oc1ccc(C=Cc2cc(O)cc(O)c2)cc1 [RES, resveratrol, reference compound] | significant inhibition | – | – | ~4.00 | – | 6.25 | – | – | – | > 100

From patent EP4516298A1, “STILBENE COMPOUNDS FOR USE IN THE TREATMENT AND PREVENTION OF INFECTIONS WITH CYTOMEGALOVIRUS (CMV)” (Szekeres, Thomas, priority 2023, dated 2025)
